The target in experiment [1] is T1, Tyrosine-protein phosphatase non-receptor type 2 (Homo sapiens, UniProt P17706).
T1 sequence (P17706 whole entry): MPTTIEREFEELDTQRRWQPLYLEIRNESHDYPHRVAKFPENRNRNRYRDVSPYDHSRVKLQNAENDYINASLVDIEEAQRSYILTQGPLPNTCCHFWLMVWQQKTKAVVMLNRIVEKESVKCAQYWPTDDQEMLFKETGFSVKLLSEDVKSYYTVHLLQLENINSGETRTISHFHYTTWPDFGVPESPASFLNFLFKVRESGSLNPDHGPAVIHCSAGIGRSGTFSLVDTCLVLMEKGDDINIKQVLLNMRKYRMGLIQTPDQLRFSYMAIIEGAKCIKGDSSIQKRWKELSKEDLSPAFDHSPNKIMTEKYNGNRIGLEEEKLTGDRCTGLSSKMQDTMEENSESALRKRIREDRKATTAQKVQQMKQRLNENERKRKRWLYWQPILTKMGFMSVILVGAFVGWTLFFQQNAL
Kind of experiment: PTP1B and TCPTP Inhibition Assay. The following applies: pH 7.5; 22 °C. Here is the method: (§1) For each concentration of test compound or DMSO control, the initial rates were used to fit the rectangular hyperbola of Michaelis-Menten by nonlinear regression analysis. The ratio of the apparent Km/Vmax vs inhibitor concentration was plotted, and the Ki was calculated by linear regression to be the negative X-intercept.

Experiment [2] has as its target T2, Tyrosine-protein phosphatase non-receptor type 1 [1-298] (Homo sapiens, UniProt P18031).
T2 construct: 1-298
T2 sequence (P18031 whole entry): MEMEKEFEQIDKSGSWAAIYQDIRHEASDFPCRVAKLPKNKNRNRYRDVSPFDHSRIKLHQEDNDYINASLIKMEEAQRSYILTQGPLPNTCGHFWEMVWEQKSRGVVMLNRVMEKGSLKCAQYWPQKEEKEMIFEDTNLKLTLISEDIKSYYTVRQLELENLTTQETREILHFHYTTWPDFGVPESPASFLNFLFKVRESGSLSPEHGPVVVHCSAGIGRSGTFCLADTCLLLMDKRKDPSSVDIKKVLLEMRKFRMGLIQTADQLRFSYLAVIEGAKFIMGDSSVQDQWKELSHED
Kind of experiment: PTP1B and TCPTP Inhibition Assay. The following applies: pH 7.5; 22 °C. As to the method: as §1

What is called Ki is the dissociation constant of the complex between target and ligand, obtained from inhibition or displacement. Read a low Ki as a stronger hold on the target. Regarding `COC(=O)c1c(O)cccc1OC/C=C/c1cccc(-c2onc(C(=O)O)c2N)c1` [4-amino-5-{3-[(1E)-3-[3-hydroxy-2-(methoxycarbonyl)phenoxy]prop-1-en-1-yl]phenyl}-1,2-oxazole-3-carboxylic acid], the Ki in experiment [1] is over 30 µM.

`COC(=O)c1c(O)cccc1OCC1CC1c1cccc(-c2cc(C(=O)O)no2)c1` (configuration not stated) [5-(3-{2-[3-hydroxy-2-(methoxycarbonyl)phenoxymethyl]cyclopropyl}phenyl)-1,2-oxazole-3-carboxylic acid]: in experiment [2], the Ki amounted to 23 µM.

The values are drawn from BindingDB's records for doi:10.1016/j.bmcl.2004.08.063 (Abbott Laboratories, 2004).
